Measurements reported in PubChem BioAssay (NCI).
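Compound exposure: 48 hours, 5 concentrations, 96-well plates. Abbreviation: GI50, concentration required for 50% inhibition of growth. Definition used: TGI = concentration required for complete inhibition of growth.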

Key:
Assay in all cases: DTP human tumour cell line panel, 48 h
[1] = system: NCI-H226 lung
[2] = system: SNB-75 CNS
[3] = system: 786-0 renal
[4] = system: SN12C renal
[5] = system: NCI-H460 lung
[6] = system: SK-MEL-2 melanoma
[7] = system: NCI-H23 lung
[8] = system: HL-60(TB) leukemia
[9] = system: NCI/ADR-RES ovarian
[10] = system: HOP-62 NSCLC

COc1cc(-c2cn(-c3ccc(F)cc3)c(=O)[nH]2)cc(OC)c1OC
GI50 [1]: > 100 µM
TGI [1]: > 100 µM
GI50 [2]: 55.6 µM
TGI [2]: > 100 µM
GI50 [3]: > 100 µM
TGI [3]: > 100 µM
GI50 [4]: 9.93 µM
TGI [4]: > 100 µM
GI50 [5]: > 100 µM
TGI [5]: > 100 µM
GI50 [6]: > 100 µM
TGI [6]: > 100 µM
GI50 [7]: > 100 µM
TGI [7]: > 100 µM
GI50 [8]: > 100 µM
TGI [8]: > 100 µM
GI50 [9]: > 100 µM
TGI [9]: > 100 µM
GI50 [10]: 45 µM
TGI [10]: > 100 µM

Fc1cccc(-c2nc(-c3c[nH]c4ncccc34)cs2)c1
GI50 [1]: > 100 µM
TGI [1]: > 100 µM
GI50 [2]: 8.34 µM
TGI [2]: 42.8 µM
GI50 [3]: > 100 µM
TGI [3]: > 100 µM
GI50 [4]: > 100 µM
TGI [4]: > 100 µM
GI50 [5]: 6.59 µM
TGI [5]: > 100 µM
GI50 [6]: > 100 µM
TGI [6]: > 100 µM
GI50 [7]: 71.1 µM
TGI [7]: > 100 µM
GI50 [8]: > 100 µM
TGI [8]: > 100 µM
GI50 [9]: > 100 µM
TGI [9]: > 100 µM
GI50 [10]: 25.7 µM
TGI [10]: > 100 µM

COc1ccc(OC)c(-c2nc3sc(C)cn3c2/C=C2\C(=O)N(C)c3ccccc32)c1
GI50 [1]: 29.8 µM
TGI [1]: > 100 µM
GI50 [2]: 17.9 µM
TGI [2]: 47.9 µM
GI50 [3]: 27.6 µM
TGI [3]: 74.6 µM
GI50 [4]: 20.6 µM
TGI [4]: 50.7 µM
GI50 [5]: 18.7 µM
TGI [5]: 44.2 µM
GI50 [6]: 15.6 µM
TGI [6]: 43.6 µM
GI50 [7]: 24.4 µM
TGI [7]: 59.3 µM
GI50 [8]: 11.5 µM
TGI [8]: 31.6 µM
GI50 [9]: 15.7 µM
TGI [9]: 54.7 µM
GI50 [10]: 22.5 µM
TGI [10]: 61.4 µM

COC(=O)C[C@@H]1CC=CC(=O)/C1=C(O)/C=C/c1ccccc1
GI50 [1]: 2.05 µM
TGI [1]: 7.55 µM
GI50 [2]: 1.05 µM
TGI [2]: 3.21 µM
GI50 [3]: 0.519 µM
TGI [3]: 1.56 µM
GI50 [4]: 0.462 µM
TGI [4]: 2.99 µM
GI50 [5]: 2.08 µM
TGI [5]: 8.2 µM
GI50 [6]: 1.63 µM
TGI [6]: 3.56 µM
GI50 [7]: 0.7 µM
TGI [7]: 2.13 µM
GI50 [8]: 1.24 µM
TGI [8]: 4.31 µM
GI50 [9]: 0.308 µM
TGI [9]: 1.97 µM
GI50 [10]: 0.56 µM
TGI [10]: 1.86 µM

COc1ncc(-c2ccc3ncnc(Nc4cccc(Cl)c4)c3c2)cc1NS(C)(=O)=O
GI50 [1]: 4.83 µM
TGI [1]: 24.2 µM
GI50 [2]: 0.158 µM
TGI [2]: 5.82 µM
GI50 [3]: 2.72 µM
TGI [3]: 24.9 µM
GI50 [4]: 1.76 µM
TGI [4]: 31.8 µM
GI50 [5]: 1.87 µM
TGI [5]: > 100 µM
GI50 [6]: 2.27 µM
TGI [6]: 8.25 µM
GI50 [7]: 1.62 µM
TGI [7]: 8.69 µM
GI50 [8]: 0.848 µM
TGI [8]: 16.4 µM
GI50 [9]: 2.38 µM
TGI [9]: 29.1 µM
GI50 [10]: 1.53 µM
TGI [10]: 42.4 µM

N#CC1=C(N)Oc2c(ccc3cccnc23)C1c1ccccc1 (configuration not stated)
GI50 [1]: 11.4 µM
TGI [1]: 50.9 µM
TGI [2]: 3.5 µM
TGI [3]: > 100 µM
TGI [4]: > 100 µM
TGI [5]: > 46.3 µM
TGI [6]: > 27 µM
TGI [7]: > 28.5 µM
TGI [8]: 2.07 µM
GI50 [9]: 0.464 µM
TGI [9]: 12.4 µM
TGI [10]: > 22.9 µM

O=C(Oc1c(Cl)c(Cl)c(Cl)c(Cl)c1Cl)C1CCCN1C(=O)OCc1ccccc1 (configuration not stated)
GI50 [1]: 3.82 µM
TGI [1]: 21.7 µM
GI50 [2]: 2.66 µM
TGI [2]: 10.2 µM
GI50 [3]: 3.94 µM
TGI [3]: 14.2 µM
GI50 [4]: 3.24 µM
TGI [4]: 12.5 µM
GI50 [5]: 3.29 µM
TGI [5]: 10.6 µM
GI50 [6]: 2.28 µM
TGI [6]: 4.49 µM
GI50 [7]: 3.17 µM
TGI [7]: 10.1 µM
GI50 [8]: 2.42 µM
TGI [8]: 6.09 µM
GI50 [9]: 3.15 µM
TGI [9]: 11.2 µM
GI50 [10]: 3.45 µM
TGI [10]: 14.9 µM

COc1ccccc1C(=O)Nc1ccc(Cl)c(C(=O)OC(C)C)c1
TGI [1]: > 100 µM
TGI [2]: > 100 µM
TGI [3]: > 100 µM
TGI [4]: > 100 µM
TGI [5]: > 100 µM
TGI [6]: > 76.8 µM
TGI [7]: 28.1 µM
TGI [8]: > 65.2 µM
TGI [9]: 64.4 µM
TGI [10]: > 100 µM

CN1CCN(c2ccc(NC(=O)c3cncnc3Nc3ccc4c(ccn4Cc4cccc(F)c4)c3)cc2)CC1
GI50 [1]: 4.86 µM
TGI [1]: 11.6 µM
GI50 [2]: 4.27 µM
TGI [2]: 8.51 µM
GI50 [3]: 0.66 µM
TGI [3]: 1.37 µM
GI50 [4]: 3.83 µM
TGI [4]: 8.15 µM
GI50 [5]: 1.35 µM
TGI [5]: 4.99 µM
GI50 [6]: 5.2 µM
TGI [6]: 10.7 µM
GI50 [7]: 4.35 µM
TGI [7]: 9.14 µM
GI50 [8]: 0.673 µM
TGI [8]: 1.4 µM
GI50 [9]: 4.81 µM
TGI [9]: 11 µM
GI50 [10]: 3.9 µM
TGI [10]: 8.84 µM
